From patent US20230157952A1, “METHOD FOR IMPROVING THE STABILITY OF A PHARMACEUTICAL COMPOSITION COMPRISING A HIGH PENETRATION DRUG, AND THE PHARMACEUTICAL COMPOSITION OBTAINED THEREFROM” (Techfields Inc., priority 2020, published 2023)

Columns and labels:
Type in all cases: physicochemical
[1] = Effect of temperature (and pH) on the stability of the solution (purity); conditions: 7% solution in water
[2] = Stability of the pure HPDs (dry solid) at 25° C./RH 60%; conditions: pure HPD, 25° C./RH 60%
[3] = Effect of pH value on the stability of the solution (purity); conditions: 25° C.

CCN(CC)CCOC(=O)C(C)c1ccc(-c2ccccc2)c(F)c1.Cl (stereo not drawn) [B-1-1, 2-(diethylamino)ethyl 2-(2-fluoro-4-biphenyl)propionate•HCl salt]
Stability of the solution at a temperature higher than 40° C. and a pH lower than 3 or greater than 6 [1]: not stable | Purity ([2]; 6 month): 98.1 ± 0.1 | Purity ([2]; 18 month): 98.1 ± 0.1 | Purity ([2]; 24 month): 98.0 ± 0.1

CC(O)C(=O)O.CCN(CC)CCOC(=O)c1ccccc1OC(C)=O [A-3, 2-(diethylamino)ethyl acetylsalicylate•lactic acid salt]
Purity ([2]; 12 month): 97.9 ± 0.2 | Purity ([2]; 18 month): 97.3 ± 0.1 | Purity ([2]; 24 month): 96.8 ± 0.2 | Purity(%) from day 0-14 ([3]; day 14, pH 1.0, 7% in water): 57.9 ± 0.4% | Purity(%) from day 0-14 ([3]; day 14, pH 2.0, 7% in water): 77.0 ± 0.4% | Purity(%) from day 0-14 ([3]; day 14, pH 3.0, 7% in water): 88.7 ± 0.2% | Purity(%) from day 0-14 ([3]; day 14, pH 3.7, 7% in water): 93.1 ± 0.3% | Purity(%) from day 0-14 ([3]; day 14, pH 4.0, 7% in water): 94.1 ± 0.4% | Purity(%) from day 0-14 ([3]; day 14, pH 4.3, 7% in water): 94.4 ± 0.2% | Purity(%) from day 0-14 ([3]; day 14, pH 4.6, 7% in water): 94.1 ± 0.2% | Purity(%) from day 0-14 ([3]; day 14, pH 5.0, 7% in water): 85.6 ± 0.4% | Purity(%) from day 0-14 ([3]; day 14, pH 6.0, 7% in water): 78.3 ± 0.3% | Purity(%) from day 0-14 ([3]; day 14, pH 7.0, 7% in water): 55.1 ± 0.3% | Purity(%) from day 0-14 ([3]; day 14, pH 8.0, 7% in water): 15.0 ± 0.4%

Br.CCN(CC)CCOC(=O)C(C)c1ccc2cc(OC)ccc2c1 (racemic) [C-2, 2-(diethylamino)ethyl (R,S)-2-(6-methoxy-2-naphthyl) propionate•HBr salt]
Purity ([2]; 3 month, listed as A-1-4): 98.9 ± 0.1 | Purity ([2]; 6 month, listed as A-1-4): 98.6 ± 0.4 | Purity ([2]; 9 month): 98.1 ± 0.1 | Purity ([2]; 18 month): 97.9 ± 0.3 | Purity ([2]; 24 month): 97.7 ± 0.4 | Purity ([2]; 24 month, listed as A-1-4): 98.0 ± 0.4 | Purity ([2]; Day 0, listed as A-1-4): 98.6 ± 0.3 | Purity(%) from day 0-28 ([3]; day 28, pH 1.0, 7% solution in water): 69.7 ± 0.3% | Purity(%) from day 0-28 ([3]; day 28, pH 2.0, 7% solution in water): 80.1 ± 0.3% | Purity(%) from day 0-28 ([3]; day 28, pH 3.0, 7% solution in water): 90.7 ± 0.3% | Purity(%) from day 0-28 ([3]; day 28, pH 3.7, 7% solution in water): 97.1 ± 0.3% | Purity(%) from day 0-28 ([3]; day 28, pH 5.0, 7% solution in water): 96.5 ± 0.3% | Purity(%) from day 0-28 ([3]; day 28, pH 6.0, 7% solution in water): 89.0 ± 0.4% | Purity(%) from day 0-28 ([3]; day 28, pH 7.0, 7% solution in water): 65.5 ± 0.3% | Purity(%) from day 0-28 ([3]; day 28, pH 8.0, 7% solution in water): 45.5 ± 0.5%

CCCCN(CCCC)CCOC(=O)C(C)c1ccc(CC(C)C)cc1.Cl (racemic) [C-6, 2-(dibutylamino)ethyl (R,S)-2-(p-isobutylphenyl)propionate•HCl salt]
Purity ([2]; 24 month): 98.1 ± 0.2 | Purity(%) from day 0-28 ([3]; day 28, pH 1.0, 7% in 25% ethanol): 68.4 ± 0.3% | Purity(%) from day 0-28 ([3]; day 28, pH 2.0, 7% in 25% ethanol): 79.2 ± 0.4% | Purity(%) from day 0-28 ([3]; day 28, pH 3.0, 7% in 25% ethanol): 91.2 ± 0.3% | Purity(%) from day 0-28 ([3]; day 28, pH 3.7, 7% in 25% ethanol): 96.9 ± 0.2% | Purity(%) from day 0-28 ([3]; day 28, pH 4.0, 7% in 25% ethanol): 97.3 ± 0.2% | Purity(%) from day 0-28 ([3]; day 28, pH 4.3, 7% in 25% ethanol): 97.3 ± 0.3% | Purity(%) from day 0-28 ([3]; day 28, pH 4.6, 7% in 25% ethanol): 97.1 ± 0.3% | Purity(%) from day 0-28 ([3]; day 28, pH 5.0, 7% in 25% ethanol): 94.5 ± 0.3% | Purity(%) from day 0-28 ([3]; day 28, pH 6.0, 7% in 25% ethanol): 89.2 ± 0.4% | Purity(%) from day 0-28 ([3]; day 28, pH 7.0, 7% in 25% ethanol): 51.5 ± 0.3% | Purity(%) from day 0-28 ([3]; day 28, pH 8.0, 7% in 25% ethanol): 35.1 ± 0.3%

CCN(CC)CCOC(=O)[C@H](C)c1ccc(CC(C)C)cc1.Cl [C-1-3, 2-(diethylamino)ethyl (R)-2-(p-isobutylphenyl)propionate•HCl salt]
Stability of the solution at a temperature higher than 40° C. and a pH lower than 3 or greater than 6 [1]: not stable | Purity ([2]; 6 month): 98.1 ± 0.3 | Purity ([2]; 9 month): 98.0 ± 0.1 | Purity ([2]; 12 month): 98.0 ± 0.3 | Purity ([2]; 18 month): 97.9 ± 0.3 | Purity ([2]; 24 month): 97.8 ± 0.2
